# “Also recorded” adds a separate entry of the source.
# Experiments:
# LRAT = target: T1, LRAT (Homo sapiens, UniProt O95237); test: In vitro analyses of LRAT activity; assay type: biochemical; conditions: HPR pre-incubated with enzyme source material
# T1 sequence (O95237 1-230): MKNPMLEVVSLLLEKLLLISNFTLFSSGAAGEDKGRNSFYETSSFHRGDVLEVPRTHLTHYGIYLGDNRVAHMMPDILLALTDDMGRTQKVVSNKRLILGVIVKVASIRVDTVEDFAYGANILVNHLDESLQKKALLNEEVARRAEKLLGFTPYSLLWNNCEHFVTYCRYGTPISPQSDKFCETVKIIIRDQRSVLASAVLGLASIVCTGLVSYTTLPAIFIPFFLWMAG
# serum retinol and RBP = conditions: cited from earlier work; for reduction in circulating RBP and circulating retinol in vivo: literature (several investigators; Berni et al. 1993)
# [1] = HPR administered to wild type mice for 5 days, illumination, then retinoids in serum and ocular tissue; assay type: in vivo; conditions: mouse, ocular tissue, ip, 20 mg/kg i.p. in DMSO, read-out: HPR accumulation within ocular tissues during the treatment period
# Procedure: In order to ensure that the observed effects of HPR in ABCA4 null mice were not due to the genetic mutation, HPR (20 mg/kg, i.p. in DMSO) was administered to wild type mice for 5 days. Control mice received only the DMSO vehicle. On the final day of HPR treatment, the mice were exposed to constant illumination (1000 lux for 10 min) order “stimulate” the visual cycle to generate visual chromophore. Immediately following the illumination period, the animals were sacrificed and the concentrations of retinoids in serum and ocular tissue were determined. […] As in the previous study, HPR caused a significant reduction in serum retinol (˜55%), ocular retinol (˜40%) and ocular retinal (˜30%). Although HPR did accumulate within ocular tissues during the treatment period (˜5 μM), no effect on LRAT or Rpe65/isomerase activities was observed.
# retinol-RBP-TTR complex = target: T2, retinol-RBP-TTR complex (Homo sapiens, UniProt P02753); test: High-throughput FRET assay for detection of RBP/TTR interaction (Alexa430-TTR); assay type: binding; conditions: for inhibition of RBP-TTR interaction in high throughput assay: 384-well format, varied concentrations 0-4 μM, conditions of Example 7
# T2 construct: purchased Sigma Chemical Co. (TTR only)
# From the text: Reduction of serum retinol and RBP are correlated with concomitant reductions in toxic lipofliscin fluorophores. Because compounds that affect RBP-TTR interaction will directly affect fluorophore levels in the eye, a high-throughput screen for small molecules which prevent interaction of RBP with TTR was developed. This screen employs probe-labeled forms of RBP and TTR which participate in a unique fluorescence resonance energy transfer (FRET) event when complexed. Compounds which interfere with RBP-TTR interaction prevent FRET. […] The sample is incubated at 37° C. for 30 min and then illuminated with 330 nm light. The emission spectra are shown in the range of 400-600 nm. HPR binds to RBP and prevents interaction with TTR, and here this property of HPR is utilized here to validate the ability of this screen to detect inhibition of RBP-TTR interaction. […] Additionally, the design of this assay permits discrimination between compounds which interact with RBP versus those which interact with TTR. Thus, by using two distinct excitation energies (280 nm and 330 nm, for protein and retinol, respectively) and implementing simultaneous monitoring of the retinol and TTR-probe fluorescence, the “target” of a presumptive small molecule can be easily determined.
# In order to facilitate screening of large numbers of test compounds, the RBP-TTR assay has been adapted to a 384-well plate format. This transition required re-evaluation of the reagent concentrations and minimal assay volume for maintaining solubility and detection sensitivity. Under the 384-well plate format, the assay can be efficiently performed in a 50 μl volume using 0.5 μM apo-RBP, 0.5 μM TTR, 2-8 μM test compound and 1 μM retinol. The microplate with minimal fluorescence background, best optical clarity and most appropriate well design was determined to be Corning's model #3711.
# Accordingly, HPR was employed at varied concentrations (from 0-4 μM), using the conditions specified in Example 7, to evaluate the high throughput assay.
# The mechanism of action underlying this effect can be explained by the disruption of RBP-TTR interactions. In order to explore this possibility and to further validate the RBP-TTR screen, the effects of all-trans retinoic and 13-cis retinoic acid, using the conditions the conditions specified for analysis of HPR, were examined.
# ABCA4 null mutant mice = test: HPR administered to ABCA4 null mutant mice for 28 days; serum retinol, ocular retinoids and A2E; assay type: in vivo
# Procedure: In order to further explore the role of HPR in the visual cycle, the in vivo effects of HPR in mice have been examined. Thus, HPR was administered to ABCA4 null mutant mice (5-20 mg/kg, i.p. in DMSO) for periods of 28 days. Control mice received only the DMSO vehicle. At the end of the treatment period, the concentrations of retinol and HPR in serum and retinoid content in ocular tissues was measured. […] Thus, the calculated percent reduction for each of the measured retinoids, and A2E, was nearly identical (see FIG. 6). […] If systemically-administered HPR inhibits ocular LRAT, then reduction of ocular retinoids and A2E should exceed the reduction in serum retinol.
# Genetic crosses of RBP4^−/− mice with ABCA4^−/− mice was undertaken to examine the role of RBP in mediation of retinol levels in serum and ocular tissue.
# RBP-TTR interaction = RBP-TTR interaction (Homo sapiens, UniProt P02753); conditions: literature (Malpeli et al.; Holven et al.; Radu et al.); cited from earlier work
# [2] = 5-20 mg/kg i.p. in DMSO, 28 days
LRAT activity in vitro (LRAT),concentration at 5 days [1],"retinol and TTR-probe fluorescence (loss of complexation) (retinol-RBP-TTR complex; 1 μM HPR, 0.5 μM unlabeled RBP + 0.5 μM Alexa430-TTR, 37° C., 30 min, 330 nm excitation)",Compound,reductions in serum retinol and RBP (serum retinol and RBP; literature (Formelli et al.; Torrisi et al.)),reduction in circulating RBP and circulating retinol in vivo (serum retinol and RBP),inhibition of RBP-TTR interaction in high throughput assay (retinol-RBP-TTR complex),reductions in A2E (ABCA4 null mutant mice; [2]),reductions in ocular retinoids (ABCA4 null mutant mice; [2]),reductions in serum retinol as a function of increasing serum HPR (ABCA4 null mutant mice; [2]),"effect on visual cycle proteins (e.g., LRAT) when administered systemically (ABCA4 null mutant mice; systemic administration)",interaction of TTR with RBP in vitro (RBP-TTR interaction)
inhibition of LRAT activity,~5 µM,significantly reduced,"CC1=C(/C=C/C(C)=C/C=C/C(C)=C/C(=O)Nc2ccc(O)cc2)C(C)(C)CCC1 [HPR, N-(4-hydroxyphenyl)retinamide]",profound reductions,established in vivo,inhibit RBP-TTR interaction,commensurate reductions,commensurate reductions,Profound reductions,limited effect,interferes with the normal interaction of TTR with RBP; also recorded: effective inhibitor
,,,"CC1=C(/C=C/C(C)=C/C=C/C(C)=C/C(=O)O)C(C)(C)CCC1 [all-trans retinoic acid, all-trans-retinoic acid]",,observed in vivo,entirely consistent with the in vivo data,,,,,
,,,"CC1=C(/C=C/C(C)=C/C=C/C(C)=C\C(=O)O)C(C)(C)CCC1 [13-cis retinoic acid, 13-cis-retinoic acid]",,observed in vivo,entirely consistent with the in vivo data,,,,,

# From patent US7432307B2, “Modulators of retinol-retinol binding protein (RBP)-transthyretin (TTR) complex formation” (Sirion Therapeutics, Inc., priority 2004, dated 2008)
